Measured values: patent US10252260B2, “System and method for deforming particles” (CytoVale Inc., priority 2016, dated 2019)

Key:
red blood cells = assay: Deformation of red blood cells in viscous co-flow (primaquine biomodel), diameter versus bullet metric; assay type: cell-based; details: red blood cells of different stiffness induced by different concentrations of primaquine; FIGS. 11A-11C
From the text: FIGS. 11A-11C illustrate bullet metric as a function of size for red blood cells treated with different concentrations of primaquine in variations of a system and method for deforming particles; and
(§1) The system 100 and/or method 200 function to enable the deformation of individual particles in a high-throughput and consistent manner, with the ability to simultaneously generate and analyze multiple data types characterizing the single particles. In one embodiment, the system 100 and/or method 200 further function to enable the generation of data that directly correlates mechanical properties of the particles with one or more fluorescence characterizations of the particles (e.g., fluorescent antibody stains, live/dead cell stains, nuclear stains, stains for apoptosis, fluorescent proteins, etc.) at the single-particle level. This can allow the generation of a direct quantitative comparison between biomolecular properties and mechanical properties. […]
(§2) Regarding Block S240, preferably, deformation metrics can be measured to characterize the deformation of the particles as the particle travels along the deformation region. […]

white blood cells = assay: Deformation of white blood cells in viscous co-flow, bullet metric as a function of treatment time; assay type: cell-based; details: white blood cells treated with 5 nM; compared to untreated controls; FIG. 10
Protocol: FIG. 10 illustrates the bullet metric as a function of treatment time for white blood cells treated with 5 nM phorbol 12-myristate as compared with a untreated control in embodiments of a system and method for deforming particles;
as §1, §2

SMILES | cell morphological metric (e.g. bullet metric) (red blood cells) | change in a cell morphological metric (bullet metric) over treatment time (white blood cells)
COc1cc(NC(C)CCCN)c2ncccc2c1 (centres unmarked) [primaquine] | decrease in a cell morphological metric | 
CCCCCCCCCCCCCC(=O)O[C@@H]1[C@@H](C)[C@@]2(O)[C@@H](C=C(CO)C[C@]3(O)C(=O)C(C)=C[C@@H]23)[C@@H]2C(C)(C)[C@]12OC(C)=O |  | increased change in a cell morphological metric
